# Source: patent publication EP1270568A1, “1-methyl-4-(3-ethoxy-9h-thioxanthene-ylidene)-piperidine and its use as 5-HT2B and/or H1 antagonist” (Biofrontera Pharmaceuticals AG, priority 2001, dated 2003)
# Experiments:
# human 5-HT2B receptor [1] = biological target: T1, human 5-HT2B receptor (Homo sapiens, UniProt P41595); assay: Cloned human 5-HT2B receptor binding assay ([3H]-5HT); design: expressed in transfected cells; host or cells: HEK 293 cells, transiently transfected; membrane preparation; details: HEK 293 cells transiently transfected with human 5-HT2B receptor, [3H]5-HT 4 to 5 nM, 37°C 30 min; result in words only
# T1 sequence (P41595 whole entry): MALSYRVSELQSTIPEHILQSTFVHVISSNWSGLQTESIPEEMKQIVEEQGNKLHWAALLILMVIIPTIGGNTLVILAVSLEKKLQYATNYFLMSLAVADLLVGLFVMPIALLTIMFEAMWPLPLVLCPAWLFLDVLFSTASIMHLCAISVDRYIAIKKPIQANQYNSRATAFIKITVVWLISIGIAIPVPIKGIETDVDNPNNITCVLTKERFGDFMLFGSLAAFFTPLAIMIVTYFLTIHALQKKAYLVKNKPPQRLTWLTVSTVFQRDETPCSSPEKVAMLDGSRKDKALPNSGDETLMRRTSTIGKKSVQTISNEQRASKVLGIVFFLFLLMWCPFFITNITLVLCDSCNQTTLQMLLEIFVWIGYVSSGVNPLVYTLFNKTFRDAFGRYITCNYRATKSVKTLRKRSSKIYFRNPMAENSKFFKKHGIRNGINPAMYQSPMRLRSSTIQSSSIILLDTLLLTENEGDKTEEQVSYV
# Experimental: The following describes an in vitro binding assay utilizing cloned 5-HT2B receptors radiolabelled with [^3H]-5HT.
# HEK 293 cells transiently transfected with an expression plasmid pXMD1-hu2B encoding the human 5-HT2B receptor (see Schmuck et al., FEBS Lett., 1994, 342, 85-90) were used as described previously (Schmuck et al., Eur. J. Pharmacol., 1996, 8, 959-967). Two days after transfection cells were harvested, pelleted at 500g for 5 min at 4°C, gently resuspended in ice-cold buffer1 (50 mM TRIS pH 7.7, 4 mM CaCl2) and homogenized using a Polytron PT 1200 tissue homogenizer (position 6 for 30 s). Cells were pelleted at 50,000g. 4°C for 10 min, washed with buffer1 and pelleted again. The final pellet was resuspended in incubation buffer (50 mM TRIS pH 7.7, 4 mM CaCl2, 10 µM pargyline and 0.1 % by weight ascorbic acid). The binding assay consisted of 300 µl of membrane suspension (protein concentration = 0.3 to 0.5 mg/ml), 150 µl of competing drug and 50 µl of [^3H]5-HT at a final concentration of 4 to 5 nM. The mixture was incubated at 37°C for 30 min and the assay terminated by rapid filtration and two washing steps with 5 ml of cold 20 mM Tris-HCl pH = 7.5, and 154 mM NaCl over Whatman GFB filters. Filters were counted by liquid scintillation. Non-specific binding was determined in the presence of an excess of 5-HT (100 µM). […] Results are expressed as pKi values. […]
# human H1 receptor [2] = biological target: T2, human H1 receptor (Homo sapiens, UniProt P35367); assay: Cloned human H1, H2, H3 (and H4) receptor binding assay ([3H]-mepyramine for H1); design: expressed in transfected cells; host or cells: COS-7 cells, transiently transfected; cell homogenates; details: COS-7 cell homogenates, 1 nM [3H]-mepyramine, 30 min at 25°C; result in words only
# T2 sequence (P35367 whole entry): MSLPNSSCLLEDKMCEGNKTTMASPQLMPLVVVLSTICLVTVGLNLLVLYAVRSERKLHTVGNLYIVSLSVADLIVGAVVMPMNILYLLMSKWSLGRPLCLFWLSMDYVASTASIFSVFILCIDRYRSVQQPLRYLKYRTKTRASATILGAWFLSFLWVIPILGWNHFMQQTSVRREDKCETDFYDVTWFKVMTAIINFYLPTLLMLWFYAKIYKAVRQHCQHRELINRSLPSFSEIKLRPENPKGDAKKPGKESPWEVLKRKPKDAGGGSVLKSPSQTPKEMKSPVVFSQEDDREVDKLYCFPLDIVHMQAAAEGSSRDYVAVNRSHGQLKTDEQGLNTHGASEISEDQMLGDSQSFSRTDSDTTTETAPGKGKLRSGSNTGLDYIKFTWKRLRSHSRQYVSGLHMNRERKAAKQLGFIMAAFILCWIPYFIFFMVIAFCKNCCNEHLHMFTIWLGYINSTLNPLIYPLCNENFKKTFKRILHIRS
# Experimental: COS-7 cells were transiently transfected with an expression plasmid pCineohH1, pCineohH2, pCineohH3 and pCineohH4 encoding the human Histamine H1, H2 H3 or H4 receptor, respectively. Transfected cells were harvested after 48 h, homogenized in ice-cold 50 mM Na2/potassium phosphate buffer (pH 7.4) and used for radioligand binding studies. Cell homogenates (40 - 50 µg of protein) were incubated for 30 min at 25°C in 50 mM Na2/potassium phosphate buffer (pH 7.4) in 400 µl with the various concentrations of either [^3H]-mepyramine, [^3H]-thiotidine, [^3H]-R-α-Methylhistamine, and [^3H]-pyramilamine for cells expressing recombinant human H1, H2, H3 and H4 receptors, respectively. The nonspecific binding was defined in the presence of 1 µM mianserin. In displacement studies, cell homogenated were incubated either with 1 nM [^3H]-mepyramine, 15 nM [^3H]-thiotidine, 0.5 nM [^3H]-R-α-Methylhistamine, or 15 nM [^3H]-pyramilamine and increasing concentrations of competing ligands. The incubations were stopped by rapid dilution with 3 ml of ice-cold 50 mM Na2/potassium phosphate buffer (pH 7.4). The bound radioactivity was seperated by filatration through Whatman GF/C filters that had been treated with 0.3 % polyethyleneimine. Filters were washed twice in 3 ml of buffer and radioactivity retained on the filters was measured by liquid scinitllation counting. […]
# 5-HT2B receptor = biological target: T3, 5-HT2B receptor (Rattus norvegicus, UniProt P30994); assay: 5-HT2B receptor tissue based functional assay in rat stomach fundus longitudinal muscle; assay type: cell-based; details: dextral shift of agonist concentration-response curve, result in words only
# T3 construct: Strips of longitudinal muscle were obtained from the stomach fundus of male Sprague Dawley rats; from tissue; host or cells: rat stomach fundus longitudinal muscle strips (male Sprague Dawley)
# T3 sequence (P30994 whole entry): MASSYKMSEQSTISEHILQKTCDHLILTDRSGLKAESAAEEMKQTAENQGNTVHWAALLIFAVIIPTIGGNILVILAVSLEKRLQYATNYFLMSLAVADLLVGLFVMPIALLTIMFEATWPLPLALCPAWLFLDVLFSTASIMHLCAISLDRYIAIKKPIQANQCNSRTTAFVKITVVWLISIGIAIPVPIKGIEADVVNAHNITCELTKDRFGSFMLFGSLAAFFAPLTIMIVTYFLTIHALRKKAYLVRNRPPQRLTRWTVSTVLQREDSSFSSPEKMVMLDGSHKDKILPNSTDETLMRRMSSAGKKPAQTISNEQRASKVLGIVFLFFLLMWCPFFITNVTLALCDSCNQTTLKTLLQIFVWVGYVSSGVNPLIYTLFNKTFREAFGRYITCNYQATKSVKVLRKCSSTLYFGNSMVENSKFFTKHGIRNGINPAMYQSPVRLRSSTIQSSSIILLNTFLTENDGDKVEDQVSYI
# Experimental: The following describes an in vitro functional assay characterizing 5-HT receptors (the putative 5-HT2B) in rat stomach fundus longitudinal muscle (Baxter et al., Brit. J. Pharmacol. 1994, 112, 323-331).
# Strips of longitudinal muscle were obtained from the stomach fundus of male Sprague Dawley rats. The mucosa was removed and the strips were suspended with a resting tension of 1 g in oxygenated (95% O2 /5% CO2) Tyrode solution at 37°C. The composition of the Tyrode solution was as follows (mM): NaCl 136.9; KCl 2.7; NaH2PO4 0.4; MgCl2 1.0; glucose 5.6; NaHCO3 11.9; CaCl2 1.8. […]
# Effects of drugs were monitored by tension transducers and recorded on polygraph recorders. Tissue response was measured as changes in isometric tension (g). The mean potency (EC50) and maximum response were evaluated by standard iterative curve fitting procedures.
# Effects of antagonists were determined by measuring dextral shifts to the agonist concentration-response curve after equilibration of the antagonists for at least 1 h. Concentration ratios were measured at half maximal response levels and single concentration antagonist affinities were determined by the equation: KB =(antagonist concentration)/(concentration ratio) [formula]
# human 5-HT2B receptor [3] = biological target: T1, human 5-HT2B receptor; assay: 5-HT2A, 5-HT2B, 5-HT2C receptor binding methods (counter screen for selectivity); design: expressed in transfected cells; host or cells: HEK293 cells; details: HEK293 cells, [3H]-5HT approximately 0.4 nM, 120 min at 4°C; result in words only
# Experimental: 5-HT2A receptors were labelled with [^3H]ketanserin in human cortex, in HEK293 cells expressing a cloned human 5-HT2A receptor and in HEK293 cells expressing the rat 5-HT2A receptor. For competition binding studies the ligand concentration was approximately 0.1 nM. For saturation binding studies concentrations of radioligand ranged from 0.01 nM to 2.0 nM. Assays were conducted in 0.5 ml of assay buffer (50 mM Tris-HCl, 4 mM calcium chloride, 0.1 % by weight ascorbic acid) (pH 7.4 at 4°C). Non-specifc binding was defined with […] unlabelled ketanserin. After a 60 min incubation at 32°C, membranes were harvested onto filters treated with 0.1 % by weight of polyethylenimine and the bound radioactivity was determined.
# Human 5-HT2B receptors were labelled in HEK293 cells as described above. except that the radioligand was [^3H]-5HT and that the assay buffer contained pargyline in a concentration of 10 mM and 0.1 % by weight of ascorbic acid. […]
# Competition radioligand binding data was analyzed using a four parameter logistic equation and iterative curve-fitting techniques to obtain estimates of the IC50 and Hill slope. Kd values, determined from saturation binding studies were then used to calculate inhibition dissociation constants (Ki).
# human H1 receptor [4] = biological target: T2, human H1 receptor; assay: Human histamine H1 receptor functional assay ([3H]-inositol phosphate formation); assay type: cell-based; design: expressed in transfected cells; details: transiently transfected HEK-293 cells, histamine-stimulated [3H]-inositol phosphate formation; result in words only
# Experimental: For the measurement of the [^3H]-inositol phosphate formation transiently transfected HEK-293 cells were seeded in 24 well plates and labeled to equilibrium with myo-[2-^3H]-inositol (3 ìCi/ml) for an additional 24 hours in growth medium. The medium was aspirated and cells were washed once with 500 µl HBS-buffer (130 mM NaCl, 900 µM NaH2PO4, 800 µM MgSO4, 5.4 mM KCl, 1.8 mM CaCl2, 25 mM Glucose in 20 mM HEPES pH 7.4). Two min after applying 20 mM Li^+ the cells were stimulated by addition of histamine in HBS-buffer. The incubation was stopped by aspiration off the culture medium and the addition of cold 10 mM formic acid. [^3H]inositol phosphates were isolated by anion exchange chromatography (see Seuwen et al., 1988, EMBO J., 7, 161-168). The pKB value was calculated according to the formula: pKB = log (A'/A - 1) - log [B], where A'/A is the ratio of the agonist concentrations (EC50 in the presence / EC50 in the absence of antagonist) and [B] the concentration of antagonist.
compound,measurement,setting,value
CCOc1ccc2c(c1)Sc1ccccc1C2=C1CCN(C)CC1 [1-methyl-4-(3-ethoxy-9H-thioxanthene-9-ylidene)-piperidine],affinity for the 5-HT2B receptor,human 5-HT2B receptor [1],found to have affinity for the 5-HT2B receptor
same,affinity for the human H1 receptor,human H1 receptor [2],found to have affinity for the human H1 receptor
same,antagonist at the 5-HT2B receptor,5-HT2B receptor,found to be an antagonist at the 5-HT2B receptor
same,affinity for the 5-HT2B receptor,human 5-HT2B receptor [3],found to have affinity for the 5-HT2B receptor
same,antagonist at the human H1 receptor,human H1 receptor [4],found to be an antagonist at the human H1 receptor
